Source: paper PMC6041282, “Inhibition and Eradication of Pseudomonas aeruginosa Biofilms by Host Defence Peptides” (Scientific Reports, 2018)
Converted amounts (≈) assume the structure as drawn. Where no end group is shown, it is not given here.

Each compound was assayed on planktonic P. aeruginosa. Details: broth dilution in MHB, 0-40 μM peptide, no visual growth after 24 h at 37 °C, polypropylene 96 wells plate.
Procedure: Antimicrobial activity of HDP’s against planktonic P. aeruginosa was assessed using broth dilution assays. An overnight culture of P. aeruginosa was grown in MHB at 37 °C to mid-logarithmic phase and diluted to 2 × 10^6 CFU/ml. In a round bottom polypropylene 96 wells plate 50 μl bacteria were mixed with 50 μl of HDP (final concentration 0–40 μM). MIC was defined as the concentration of peptide which inhibited visual growth of bacteria in the wells after 24 h incubation at 37 °C. Subsequently, wells without visual growth were plated out on TSA plates and incubated at 37 °C for 24 h to determine the MBC.

| Compound | MIC [µM] |
| --- | --- |
| CC[C@H](C)[C@H](NC(=O)[C@H](CCCCN)NC(=O)[C@H](CCC(=O)O)NC(=O)[C@H](CCCCN)NC(=O)[C@H](CO)NC(=O)[C@H](CCCCN)NC(=O)[C@H](CCCNC(=N)N)NC(=O)[C@H](Cc1ccccc1)NC(=O)[C@H](Cc1ccccc1)NC(=O)[C@H](CC(=O)O)NC(=O)CNC(=O)[C@H](CC(C)C)NC(=O)[C@@H](N)CC(C)C)C(=O)NCC(=O)N[C@@H](CCCCN)C(=O)N[C@@H](CCC(=O)O)C(=O)N[C@@H](Cc1ccccc1)C(=O)N[C@@H](CCCCN)C(=O)N[C@@H](CCCNC(=N)N)C(=O)N[C@H](C(=O)N[C@H](C(=O)N[C@@H](CCC(N)=O)C(=O)N[C@@H](CCCNC(=N)N)C(=O)N[C@H](C(=O)N[C@@H](CCCCN)C(=O)N[C@@H](CC(=O)O)C(=O)N[C@@H](Cc1ccccc1)C(=O)N[C@@H](CC(C)C)C(=O)N[C@@H](CCCNC(=N)N)C(=O)N[C@@H](CC(N)=O)C(=O)N[C@@H](CC(C)C)C(=O)N[C@H](C(=O)N1CCC[C@H]1C(=O)N[C@@H](CCCNC(=N)N)C(=O)N[C@H](C(=O)N[C@@H](CCC(=O)O)C(=O)N[C@@H](CO)C(=O)O)[C@@H](C)O)C(C)C)[C@@H](C)CC)C(C)C)[C@@H](C)CC [LL-37] | 10 (≈ 44.9 µg/mL) |
| GLLRKGGEKIGEKLKKIGQKIKNFFQKLVPQPEQ [CRAMP] | 40 |

Same assay, conditions: planktonic, 24 h

| Compound | MIC [µM] | MBC [µM] |
| --- | --- | --- |
| RLKELITTGGQKIGEKIRRIGQRIKDFFKNLQPREEKS [K9CATH] | 40 | > 40 |
| RVKRFWPLVPVAINTVAAGINLYKAIRRK [cCATH-3] | – | 5 to 10 |
| KRFGRLAKSFLRMRILLPRRKILLAS [eCATH-1] | 2.5 to 5 | 5 to 10 |
| KRRHWFPLSFQEFLEQLRRFRDQLPFP [eCATH-2] | > 40 | > 40 |
| KRFHSVGSLIQRHQQMIRDKSEATRHGIRIITRPKLLLAS [eCATH-3] | > 40 | > 40 |
| RFGRFLRKIRRFRPKVTITIQGSARF [cCATH-2] | 5 to 10 | 10 to 20 |

Second part, led by results:

| MIC [µM] | Compound | MBC [µM] |
| --- | --- | --- |
| 40 | RIIDLLWRVRRPQKPKFVTVWVR [PMAP-23] | > 40 |
| 5 to 10 | RRRPRPPYLPRPRPPPFFPPRLPPRIPPGFPPRFPPRFP [PR-39] | 10 |

Same assay, conditions: wells without visual growth plated on TSA, 24 h at 37 °C

| Compound | MBC [µM] |
| --- | --- |
| CC[C@H](C)[C@H](NC(=O)[C@H](CCCCN)NC(=O)[C@H](CCC(=O)O)NC(=O)[C@H](CCCCN)NC(=O)[C@H](CO)NC(=O)[C@H](CCCCN)NC(=O)[C@H](CCCNC(=N)N)NC(=O)[C@H](Cc1ccccc1)NC(=O)[C@H](Cc1ccccc1)NC(=O)[C@H](CC(=O)O)NC(=O)CNC(=O)[C@H](CC(C)C)NC(=O)[C@@H](N)CC(C)C)C(=O)NCC(=O)N[C@@H](CCCCN)C(=O)N[C@@H](CCC(=O)O)C(=O)N[C@@H](Cc1ccccc1)C(=O)N[C@@H](CCCCN)C(=O)N[C@@H](CCCNC(=N)N)C(=O)N[C@H](C(=O)N[C@H](C(=O)N[C@@H](CCC(N)=O)C(=O)N[C@@H](CCCNC(=N)N)C(=O)N[C@H](C(=O)N[C@@H](CCCCN)C(=O)N[C@@H](CC(=O)O)C(=O)N[C@@H](Cc1ccccc1)C(=O)N[C@@H](CC(C)C)C(=O)N[C@@H](CCCNC(=N)N)C(=O)N[C@@H](CC(N)=O)C(=O)N[C@@H](CC(C)C)C(=O)N[C@H](C(=O)N1CCC[C@H]1C(=O)N[C@@H](CCCNC(=N)N)C(=O)N[C@H](C(=O)N[C@@H](CCC(=O)O)C(=O)N[C@@H](CO)C(=O)O)[C@@H](C)O)C(C)C)[C@@H](C)CC)C(C)C)[C@@H](C)CC [LL-37] | 10 to 20 |
| GLLRKGGEKIGEKLKKIGQKIKNFFQKLVPQPEQ [CRAMP] | > 40 |
